In patent US10221147B2, “Heterocyclic compounds with working memory enhancing activity” (Red Bull GmbH, priority 2014, dated 2019):
pEC50: −log10 of the molar value.

Tests used:
[1] = target: T1, dopamine transporter (DAT) (Homo sapiens, UniProt Q01959); test: Substrate uptake inhibition in HEK-DAT cells; format: cell-based; conditions: for inhibition of DAT and selectivity against SERT and NET: verbal summary of EC50 values
T1 construct: expressed in transfected cells; host or cells: HEK293 (HEK-DAT)
Method: (§1) The human isoforms of DAT, SERT and NET were expressed in HEK293 (HEK-DAT, HEK-SERT and HEK-NET) cells. DAT inhibitors-mediated monoamine transporter effects on substrate uptake were analyzed according to procedure described by Sitte et al. In brief, cells were grown in poly-d-lysine coated 96-well plates, incubated with compounds diluted in Krebs-Ringer-HEPES buffer, substrates were subsequently added, cells were lysed with 1% SDS (sodium dodecyl sulphate) and released radioactivity was measure by a liquid scintillation counter (23).
(§2) EC50-values for the dopamine transporter (DAT), the norepinephrine transporter (NET) and the serotonin transporter (SERT) were obtained: […]

[2] = target: T2, serotonin transporter (SERT) (Homo sapiens, UniProt P31645); test: Substrate uptake inhibition in HEK-SERT cells; format: cell-based; conditions: human SERT expressed in HEK293, substrate uptake
T2 construct: expressed in transfected cells; host or cells: HEK293 (HEK-SERT)
Method: as §1, §2

[3] = target: T3, norepinephrine transporter (NET) (Homo sapiens, UniProt P23975); test: Substrate uptake inhibition in HEK-NET cells; format: cell-based; conditions: human NET expressed in HEK293, substrate uptake
T3 construct: expressed in transfected cells; host or cells: HEK293 (HEK-NET)
Method: as §1, §2

Male Sprague Dawley rats = test: 12 arm radial arm maze (RAM), working memory errors; format: in vivo, rat; conditions: versus DMSO-injected counterparts
Source text: One such animal model is the radial arm maze using rats and is given in detail in Timofeva O. et al., Brain Res. 1308 (2010) 147-152: Wenk G. et al.; The Journal of Neuroscience (2004) 8.5A.1-8.5A.12; Akoto M. et al.; The Journal of Neuroscience (2000)20 (189: 7116-7121: Levin E D et al.; Behavioral Brain Res. 208 (2010) 319-327. Li-Bo Z. et al.; Neuropharmacology 37, 1998) 323-330. Roegge, C S. et al.; Toxicological Sciences 57, 121-30 (2000).
Male Sprague Dawley rats were used for the studies aged between 12-14 weeks. Twelve rats per group were used for this study. All rats were obtained from Core Unit of Biomedical Research, Division of Laboratory Animal Science and Genetics, Medical University of Vienna and maintained in cages made of makrolon and filled with autoclaved woodchips and water in bottles was available ad libitum. The room was illuminated with artificial light at an intensity of about 200 lx in 2 m from 5 am to 7 pm. Radial arm maze (RAM) training was performed between 8:00 h and 13:00 h. […]
Before starting the training, rats were given two habituation sessions in which food was placed all over the maze and rats were allowed to explore the maze and consume the food for 5 minutes. […] An arm was baited only once and a repeated entry into a baited arm was counted as a working memory error, whereas any entry into an un-baited arm was recorded as a reference memory error. […]

T1 sequence (Q01959 whole entry): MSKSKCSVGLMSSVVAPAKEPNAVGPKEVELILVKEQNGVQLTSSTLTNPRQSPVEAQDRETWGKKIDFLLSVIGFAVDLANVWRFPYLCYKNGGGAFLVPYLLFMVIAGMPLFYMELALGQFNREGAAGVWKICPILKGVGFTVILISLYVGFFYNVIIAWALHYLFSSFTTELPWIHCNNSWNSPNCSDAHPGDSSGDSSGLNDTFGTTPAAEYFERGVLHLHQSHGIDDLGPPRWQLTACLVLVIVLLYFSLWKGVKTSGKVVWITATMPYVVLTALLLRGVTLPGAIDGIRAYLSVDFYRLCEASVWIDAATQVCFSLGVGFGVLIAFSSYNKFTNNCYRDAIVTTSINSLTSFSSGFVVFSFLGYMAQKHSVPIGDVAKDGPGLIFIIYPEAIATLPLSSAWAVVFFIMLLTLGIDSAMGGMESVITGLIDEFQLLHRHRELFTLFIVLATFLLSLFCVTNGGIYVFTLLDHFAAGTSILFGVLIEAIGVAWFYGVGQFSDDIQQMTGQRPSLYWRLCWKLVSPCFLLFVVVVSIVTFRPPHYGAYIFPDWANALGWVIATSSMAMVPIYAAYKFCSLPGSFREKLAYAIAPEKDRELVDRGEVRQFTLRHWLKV
T2 sequence (P31645 whole entry): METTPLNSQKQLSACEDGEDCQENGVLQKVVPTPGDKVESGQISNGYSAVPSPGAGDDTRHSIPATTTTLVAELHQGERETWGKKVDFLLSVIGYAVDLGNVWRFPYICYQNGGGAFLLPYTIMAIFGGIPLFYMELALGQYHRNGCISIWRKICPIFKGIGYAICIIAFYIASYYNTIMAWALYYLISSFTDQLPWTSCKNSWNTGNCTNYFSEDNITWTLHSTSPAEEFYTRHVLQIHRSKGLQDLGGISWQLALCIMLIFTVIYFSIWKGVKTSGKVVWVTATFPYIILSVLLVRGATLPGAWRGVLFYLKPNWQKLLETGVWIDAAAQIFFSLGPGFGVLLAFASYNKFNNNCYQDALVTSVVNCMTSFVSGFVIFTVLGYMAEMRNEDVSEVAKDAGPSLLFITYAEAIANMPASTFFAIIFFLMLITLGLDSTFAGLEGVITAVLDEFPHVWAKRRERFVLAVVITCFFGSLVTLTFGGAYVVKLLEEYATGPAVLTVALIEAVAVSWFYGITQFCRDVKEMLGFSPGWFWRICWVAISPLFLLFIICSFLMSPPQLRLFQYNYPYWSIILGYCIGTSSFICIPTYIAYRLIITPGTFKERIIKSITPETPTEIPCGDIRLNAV
T3 sequence (P23975 whole entry): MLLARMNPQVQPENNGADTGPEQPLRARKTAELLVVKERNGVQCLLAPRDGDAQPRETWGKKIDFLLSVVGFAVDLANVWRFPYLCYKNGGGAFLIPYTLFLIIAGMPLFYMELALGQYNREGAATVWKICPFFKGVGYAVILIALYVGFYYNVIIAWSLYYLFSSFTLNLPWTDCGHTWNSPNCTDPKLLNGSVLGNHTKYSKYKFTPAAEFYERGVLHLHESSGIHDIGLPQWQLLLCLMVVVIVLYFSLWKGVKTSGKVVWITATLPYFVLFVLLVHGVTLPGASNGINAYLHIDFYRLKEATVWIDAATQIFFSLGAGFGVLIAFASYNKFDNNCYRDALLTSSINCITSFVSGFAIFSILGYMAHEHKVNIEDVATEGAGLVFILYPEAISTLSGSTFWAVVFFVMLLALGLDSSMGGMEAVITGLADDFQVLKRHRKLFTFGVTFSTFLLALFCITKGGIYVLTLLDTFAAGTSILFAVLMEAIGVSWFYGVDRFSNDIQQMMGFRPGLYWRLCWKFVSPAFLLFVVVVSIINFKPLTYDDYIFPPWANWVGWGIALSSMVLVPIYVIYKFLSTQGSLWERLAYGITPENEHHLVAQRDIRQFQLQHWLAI

Row | Compound | pEC50 [1] | inhibition of DAT and selectivity against SERT and NET [1] | pEC50 [2] | pEC50 [3] | melting point | performance in RAM training from day eight (working memory errors) (Male Sprague Dawley rats; day eight to ten, p<0.05) | performance in RAM training up to day seven (Male Sprague Dawley rats; up to day seven)
1 | [O-][S+](Cc1cscn1)C(c1ccccc1)c1ccccc1 (stereo not drawn) [4-(diphenylmethanesulfinylmethyl)-1,3-thiazole] | 5.14 | excellent inhibition and selectivity against SERT and NET | 3.34 | 3.26 | – | – | –
2 | Cc1csc(C[S+]([O-])C(c2ccccc2)c2ccccc2)n1 (stereo not drawn) | – | – | – | – | 104 to 107 °C | – | –
3 | [O-][S+](Cc1nccs1)C(c1ccccc1)c1ccccc1 (stereo not drawn) [C1, 2-(diphenylmethanesulfinylmethyl}-1,3-thiazole] | – | – | – | – | 119 to 122 °C | performed better | comparable level
4 | [O-][S+](Cc1csc(C2CC2)n1)C(c1ccccc1)c1ccccc1 (stereo not drawn) [4-(diphenylmethanesulfinylmethyl)-2-cyclopropyl-1,3-thiazole] | 5.39 | excellent inhibition and selectivity against SERT and NET | 3.36 | 3.11 | – | – | –
